Laboratory results taken from patent US10179194B2, “Self-assembling peptides, peptidomimetics and peptidic conjugates as building blocks for biofabrication and printing” (Agency for Science, Technology and Research, priority 2013, dated 2019).
Peptide text beside a SMILES is read from it.

Key:
[1] = Stimuli-responsive gelation (minimum gelation concentration); assay type: physicochemical
Method: Ac-LIVAGK-NH2 (SEQ ID NO: 20) forms hydrogels at 20 mg/mL in water, 12 mg/mL in saline, 7.5 mg/mL in PBS, and 10 mg/mL in 10 mM NaOH.(B) The rigidity, as represented by the storage modulus (G′), of 20 mg/mL Ac-LIVAGK-NH2 hydrogels increases by one order of magnitude to 10 kPa when dissolved in normal saline(NaCl) as compared to water at 1 kPa. In phosphate buffered saline (PBS), G′ increases to 40 kPa. The stiffness also increases with peptide concentration. (C) The addition of sodium hydroxide (NaOH) enhances the rigidity of 20 mg/mL Ac-LIVAGK-NH2 (SEQ ID NO: 20) hydrogel from 1 kPa in water to 80 kPa. The rigidity increases with NaOH concentration. (D) Hydrogel droplet arrays of various dimensions can be obtained by mixing equivolumes of peptide solution (such as 10 mg/mL Ac-ILVAGK-NH2)(SEQ ID NO: 20) and PBS containing small molecules. Bioactive moieties can also be encapsulated; 1 μL droplets with green food colouring and 488 nm emission quantum dots, 2 μL droplets with red food colouring and 568 nm emission fluorophore conjugated to a secondary antibody, and 5 μL droplets with methylene blue and DAPI. (E) Hydrogel “noodles” are obtained by extruding 5 mg/mL Ac-ILVAGK-NH2 (SEQ ID NO: 20) solution through a 27 gauge needle into a concentrated salt bath.
• Peptide sequence: Ac-LIVAGD-COOH (SEQ ID NO: 17) • Molecular weight: 629.56 • (1) Temperature Sweep Study for Ac-LD6 (L) (SEQ ID NO : 17): • (a) The peptide mixture was then placed on rheometer lower plate. […]

[2] = Rheology of hydrogels, storage modulus G'; assay type: physicochemical
Method: Hydrogel samples were prepared in polydimethysiloxane moulds to obtain approximately 1 mm thick, 8 mm diameter discs. Dynamic strain and oscillatory frequency sweep experiments were carried out using the ARES-G2 Rheometer (TA Instruments, Piscataway, N.J.) with 8 mm titanium parallel plate geometry. The effects of varying several parameters on viscoelastic properties were studied as follows: • (1) Effect of varying concentration • (2) Effect of varying ionic strength of the solution (water vs saline vs PBS) • (3) Effect of varying pH Extrusion from 27 Gauge Needle
Rheology. Hydrogel samples were prepared in polydimethysiloxane moulds to obtain approximately 1 mm thick, 8 mm diameter discs. Dynamic strain and oscillatory frequency sweep experiments were carried out using the ARES-G2 Rheometer (TA Instruments, Piscataway, N.J.) with 8 mm titanium parallel plate geometry.

[3] = tested on: New Zealand White rabbits; assay: Induced disc degeneration rabbit model (injectable therapy); assay type: in vivo
Method: FIG. 14 Evaluation of an injectable therapy in a rabbit model of degenerative disc disease. • (A) In this animal model, three lumbar intervertebral discs between the L3 and L6 vertebrae were punctured and their nucleus pulposus (NP) content aspirated. One month post-injury, two different treatments were injected into the NP space. The first treatment consists of 20 mg/mL of Ac-LIVAGK-NH2 (SEQ ID NO: 20) in PBS and gadolinium-DTPA (Gd-DTPA), a T1 MRI contrast agent. The second therapy consists of labeled donor rabbit NP cells encapsulated in 20 mg/mL of Ac-LIVAGK-NH2 (SEQ ID NO: 20) in PBS. The cells were labeled with FITC-conjugated iron oxide nanoparticles, which are T2 MRI contrastophores. […] In comparison, damaged untreated discs (D) are darker. […] The healthy disc was obtained from animal R245 (disc L2/L3), while the damaged disc was from R334 (L4/L5). The hydrogel treated disc imaged is L3/L4 from R245 and the cell therapy disc is L5/L6 of R328. At higher magnification, faintly fluorescent cells could be observed for discs that received cell therapy.
Induced disc degeneration rabbit model. […]
We designed an injectable therapy wherein our stimuli-responsive peptide Ac-LIVAGK-NH2 (SEQ ID NO: 20) was administered as a low viscosity solution which subsequently gels in situ. This therapy was evaluated in the induced disc degeneration rabbit model. […]

guinea pigs = conditions: guinea pig, in vivo
[4] = tested on: Chinese hamster ovary cells
[5] = Self-assembly into aggregates and fibres in aqueous solution; assay type: physicochemical
Method: It is in some embodiments stable in aqueous solution at physiological conditions at ambient temperature for a period of time in the range from 1 day to 1 month or more. It may in some embodiments be stable in aqueous solution at physiological conditions at 90° C. for at least 1 hour, at least 2 hours, at least 3 hours, at least 4 hours or at least 5 hours An amphiphilic linear sequence of an amphiphilic peptide and/or peptoid including an amphiphilic linear peptide and/or peptoid, is capable of providing a self assembling α-helical fiber in aqueous solution under physiological conditions. The peptides/peptoids (typically 3-7-mers) in the L- or D-form can self assemble into supramolecular helical fibers which are organized into mesh-like structures mimicking biological substances such as collagen. It has previously been observed in X-ray crystallography that peptides of a length of 3 to 6 amino acids with repetitive alanine containing sequences and an acetylated […] take a helical conformation (Hatakeyama, Y, et al, Angew. Chem. Int. Ed. (2009) 8695-8698). Using peptides with an amphiphilic sequence, Ac-LD6 (L), the formation of aggregates has for example been observed already at 0.1 mg/ml. […]

## CC[C@H](C)[C@H](NC(=O)[C@H](CC(C)C)NC(C)=O)C(=O)N[C@H](C(=O)N[C@@H](C)C(=O)NCC(=O)N[C@@H](CCCCN)C(N)=O)C(C)C [Ac-LIVAGK-NH2] (Ac-LIVAGK-NH2)
[1]; in 10 mM NaOH
  concentration at which hydrogels form: 10000 µg/mL
[1]; in PBS
  concentration at which hydrogels form: 7500 µg/mL
[1]; in saline
  concentration at which hydrogels form: 12000 µg/mL
[1]; in water
  concentration at which hydrogels form: 20000 µg/mL
[2]; 20 mg/mL hydrogel in normal saline (NaCl)
  storage modulus (G′): 10 kPa
[2]; 20 mg/mL hydrogel in phosphate buffered saline (PBS)
  storage modulus (G′): 40 kPa
[2]; 20 mg/mL hydrogel in water
  storage modulus (G′): 1 kPa
[2]; 20 mg/mL hydrogel with addition of sodium hydroxide (NaOH)
  storage modulus (G′): 80 kPa
[3]; 20 mg/mL in PBS with Gd-DTPA, or with labeled donor rabbit NP cells, two month post-treatment
  immune response and tissue integration in histology sections of discs: integrated with the tissue and did not elicit an immune response
[3]; approximately 100 μL of 20 mg/mL peptide in PBS injected into a damaged NP
  time to gelation in situ: ≤ 5 min
Guinea pigs
  irritation or allergic reactions: no irritation or allergic reactions
  reactions following subsequent immune challenge: no reactions were observed
  systemic signs of toxicity: did not exhibit any systemic signs of toxicity
[4]
  Breaks SB (chromosome break): 2
  Breaks TB (chromatid break): 3
  Cells with aberrations (excluding gaps): 5
  D (deletion): 0
  Gaps SG (chromosome gap): 2
  Inter Chromosomal Rearrangements CR (complex): 0
  Inter Chromosomal Rearrangements DC (dicentric chromosome): 0
  Inter Chromosomal Rearrangements QR (quadradial): 0
  Inter Chromosomal Rearrangements R (ring): 0
  Inter Chromosomal Rearrangements TR (triradial): 0
  Other aberrations DM (double minute): 0
  Other aberrations PV (pulverized): 0
  mutagenicity (genotoxicity assays): non-mutagenic

## Ac-LIVAGD-OH [Ac-LD6 (L)]
[5]
  concentration at which formation of aggregates is observed: 100 µg/mL
  concentration at which peptide monomers align to form fibrous structures: 1000 µg/mL
